Assay results taken from US20260269287A1, “ALL-NONAQUEOUS MEMBRANE-FREE FLOW BATTERIES” (University of Cincinnati, priority 2023, published 2026).
Entries after “also recorded” stand apart in the source; their conditions may differ.

Legend:
Assay type in all cases: physicochemical
[1] = Solubility test in 1.5 M LiClO4/FEC; conditions: average of repeated tests
Procedure: (§1) Solubility test. A solution of 1.5 M LiClO4/FEC was used for the solubility measurements. The solution was gradually added to a vial containing known amounts of the organic compounds used as the catholytes (Tri-TEMPO, C3-PTZ, and CP). Once a clear solution was obtained, the volume of the electrolyte was determined using an analytical pipette. The solubilities of the organic compounds were calculated from the ratio of the molar amount to the electrolyte volume. These steps were repeated twice, and the average values are presented.
as §1, with “processes” for “steps”
Solubility Test. A solution of FEC/LiClO4 (1.5 M) was used for the solubility measurements under an inert argon atmosphere at a temperature of 27° C. The solution was gradually added to a vial containing known amounts of the organic compounds used as the catholytes (Tri-TEMPO, C3-PTZ, and CP). Once a clear solution was obtained, the volume (50 μL) of the electrolyte was determined using an analytical pipette (P20). The solubilities of the organic compounds were calculated from the ratio of the molar amount to the electrolyte volume. These processes were repeated twice, and the average values are presented.

[2] = Screening of cathode materials: solubilities in both phases of the FEC/BMP-TFSI nonaqueous biphasic system; conditions: for solubility in FEC (catholyte): FEC / cathode electrolyte FEC/LiClO4; for affinity towards the anolyte: anode electrolyte BMP-TFSI/LiTFSI
Procedure: (§2) To explore catholyte materials that meet these solubility requirements, eleven organic compounds were selected, and their solubilities in both phases of the NBS were tested. These materials included derivatives of phenothiazine, cyclopropenium, 2,2,6,6-tetramethylpiperidinyloxy (TEMPO), anthraquinone (AQ), and ferrocene (FIG. 9).
as §2, with “cyclopropenium” for “cyclopropenium,”, “33). […] The solubilities of Tri-TEMPO, C3-PTZ, and CP in 1.5 M FEC/LiClO4 were ~1.2 M, ~1 M, and 1.8 M, respectively.” for “9).”
as §2, with “(FIGS. 33 and 102). […] The solubilities of Tri-TEMPO, C3-PTZ, and CP in […] (1.5 M) were ~1.2 M, ~1 M, and 1.8 M, respectively.” for “(FIG. 9).”

[3] = Crossover in the biphasic system under static conditions (UV-visible spectroscopy and CV); conditions: 15 days, 0.5 M redox material, FEC/BMP-TFSI biphasic system
Procedure: as §2
as §2, with “cyclopropenium” for “cyclopropenium,”, “33). […] The solubilities of Tri-TEMPO, C3-PTZ, and CP in 1.5 M FEC/LiClO4 were ~1.2 M, ~1 M, and 1.8 M, respectively.” for “9).”
as §2, with “(FIGS. 33 and 102). […] The solubilities of Tri-TEMPO, C3-PTZ, and CP in […] (1.5 M) were ~1.2 M, ~1 M, and 1.8 M, respectively.” for “(FIG. 9).”
Physiochemical Characterization. The UV-visible absorption spectra were recorded using a UV-visible spectrophotometer (Cary 8454 UV-Vis, Agilent Technologies). To perform UV-vis measurements, samples with concentrations below 5 mM were prepared. To achieve this, highly concentrated samples were diluted in an appropriate electrolyte solvent before conducting the UV-vis measurements. For the UV-vis calibration curve, stock solutions of Tri-TEMPO at concentrations of 0.3 M and 0.5 M were prepared in FEC/LiClO4 (1.5 M). These solutions were then further diluted to prepare solutions with concentrations of 1, 2, 3, 4, and 5 mM. In addition, a blank sample containing no redox materials was prepared to measure the UV-vis spectrum. The absorption intensity of the UV-vis spectra at different concentrations was used to construct the UV-vis calibration curve. […]

[4] = Cyclic voltammetry of redox-active cathode materials in 0.1 M LiClO4/FEC; conditions: for reversible redox couple potential: 5 mM in 0.1 M LiClO4/FEC; for electrochemical stability on repeated CV cycling: in 0.1 M LiClO4/FEC, 1st vs 2000th cycle at 200 mV/s; for ratio of cathodic peak current (ipc) and anodic peak current (ipa): scan rates 50-200 mV/s
Procedure: (§3) Electrochemical characterization. CV measurements were performed to evaluate the electrochemical properties of the redox-active materials (Tri-TEMPO, C3-PTZ, and CP) as well as the crossover of the redox-active materials before and after long-term battery cycling. For the CV measurements, 5 mM Tri-TEMPO, 5 mM C3-PTZ, and 5 mM CP solutions were prepared in 0.1 M LiClO4/FEC electrolyte. A 3-mm glassy carbon disk was used as the working electrode and was polished with 5-nm Al2O3 before the measurements. A piece of Pt wire (0.5 mm) was used as the counter electrode while a Ag/Ag^+ electrode was used as the reference electrode.
as §3, with “characterizations.” for “characterization.”, “mM of” for “mM”, “Tri-TEMPO,” for “Tri-TEMPO, 5 mM”, “and” for “and 5 mM”, “FEC/LiClO4” for “LiClO4/FEC”, “5 nm” for “5-nm”
Electrochemical Characterizations. For the CV measurements, 5 mM of Tri-TEMPO, C3-PTZ, and CP solutions were prepared in FEC/LiClO4 (0.1 M) electrolyte. A glassy carbon disk (CHI Instrument, 3 mm) was used as the working electrode and was polished with Al2O3(Pine Research Instrumentation, Inc., […]) before the measurements, where water was used as the solvent to polish the electrode. A piece of Pt wire (Pine Research Instrumentation, Inc., thickness 0.5 mm, purity 99.99%) was used as the counter electrode while an Ag/Ag+ (Fisher Scientific) electrode was used as the reference electrode. The CV measurements were performed using a Bio-Logic potentiostat. Electrochemical impedance spectroscopy (EIS) was performed using a potentiostatic signal spanning from 200 KHz to 100 mHz, with an amplitude of 10 mV. The measurements were conducted under open-circuit voltage (OCV) conditions for a total of 54 data points. The charge/discharge performances were evaluated using Land and Bio-Logic potentiostats.

[5] = 1H and 19F NMR determination of LiTFSI concentration in the TEGDME and NFTTS layers; conditions: TEGDME/NFTTS biphasic system after salt-out
Procedure: Physicochemical characterizations. The UV-visible absorption spectra were collected on a UV-visible spectrophotometer (Agilent Technologies, Cary 8454 UV-Vis). To perform UV-visible measurements, dilute samples with concentrations below 5 mM were prepared. To achieve this, highly concentrated samples were diluted in an appropriate electrolyte solvent before conducting the UV-visible measurements. A blank sample containing no redox materials was prepared to measure the UV-visible spectrum. The ^1H and ^19F NMR spectra were recorded on a Bruker AV400 spectrometer (400 MHz). The chemical shifts were reported in ppm. To measure the concentration of LiTFSI in TEGDME and NFTTS layers of the biphasic system, a sample of 10 μL volume was collected from each layer and mixed with 400 μL of CDCl3 for preparing the NMR samples. ^1H NMR spectra were first recorded using these samples, and 50 μL of TBAPF6, as an internal standard, was then added to those samples before performing ^19F NMR.
For Design-I, because the gravimetric densities of the solvents followed the sequence TEGDME<NFTTS<FEC, TEGDME was used as the anolyte for the top layer, NFTTS as the ion-exchange layer in the middle, and FEC as the catholyte in the bottom layer. […] This property poses a challenge in constructing a stable triphasic system with the desired immiscibility between the layers. […]

[6] = 1H NMR stability of C3-PTZ and CP at room temperature and 60° C.; conditions: over 10 days at 25° C. and 60° C., CD3CN
Procedure: The ^1H NMR spectra were recorded on a Bruker AV400 spectrometer (400 MHz). The chemical shifts were reported in ppm. To determine if CP or C3PTZ had crossed through the biphasic layer, we extracted […] samples from anolyte before and after subjecting the system to extended charge/discharge cycles (~100 cycles). These […] samples were subjected to 1H NMR analysis by combining them with […] of CD3CN, resulting in a total NMR solvent volume of […]. In addition, we followed specific sample preparation procedures to assess the stability of CP and C3-PTZ using ^1H NMR. Approximately 5 mg of either solid CP or C3-PTZ was mixed with […] of CD3CN to create NMR samples. Two NMR samples were prepared for each compound in NMR tubes equipped with J. Young air-inlet valves. Firstly, we recorded ^1H NMR spectra for these NMR samples, after which we stored one NMR tube of each sample at room temperature while the other was placed at 60° C. Subsequently, we collected a series of ^1H NMR spectra at 24-h intervals for 10 days using these samples.

CC1(C)CC(Nc2nc(NC3CC(C)(C)N(OC4CCCCC4)C(C)(C)C3)nc(NC3CC(C)(C)N(OC4CCCCC4)C(C)(C)C3)n2)CC(C)(C)N1OC1CCCCC1 [Tri-TEMPO, 2,4,6-tri-(1-cyclohex-yloxy-4-imino-2,2,6,6-tetramethylpiperidine)-1,3,5-triazine]
solubility [1]: ~ 1.2 M | solubility in FEC (catholyte) [2]: high solubilities | affinity towards the anolyte [2]: extremely poor affinity | crossover from catholyte to anolyte [3]: Negligible crossover | reversible redox couple potential [4]: 0.37 V vs. Ag/Ag^+ | electrochemical stability on repeated CV cycling [4]: high cycling stability | ratio of cathodic peak current (ipc) and anodic peak current (ipa) [4]: ~1

O=S(=O)([N-]S(=O)(=O)C(F)(F)F)C(F)(F)F.[Li+] [LiTFSI, lithium bis(trifluoromethanesulfonyl)imide]
concentration of LiTFSI in the NFTTS phase [5]: 0.14 M | concentration of LiTFSI in the TEGDME phase [5]: 1 M

CCCN1c2ccccc2Sc2ccccc21 [C3-PTZ, N-propyl phenothiazine]
solubility [1]: ~ 1 M | solubility in FEC (catholyte) [2]: high solubilities | affinity towards the anolyte [2]: extremely poor affinity | crossover from catholyte to anolyte [3]: Negligible crossover | reversible redox couple potential [4]: 0.33 V vs. Ag/Ag^+ | electrochemical stability on repeated CV cycling [4]: high cycling stability | ratio of cathodic peak current (ipc) and anodic peak current (ipa) [4]: ~1 | thermostability by 1H NMR [6]: superior thermostability; also recorded: improved thermo-stability

CCCCN(CC)c1c(N(CC)CCCC)[c+]1N(CC)CCCC.F[P-](F)(F)(F)(F)F [CP, tris(dialkylamino)cyclo-propenium]
solubility [1]: 1.8 M | solubility in FEC (catholyte) [2]: high solubilities | affinity towards the anolyte [2]: extremely poor affinity | crossover from catholyte to anolyte [3]: Negligible crossover | reversible redox couple potential [4]: 0.93 V vs. Ag/Ag^+ | electrochemical stability on repeated CV cycling [4]: high cycling stability | ratio of cathodic peak current (ipc) and anodic peak current (ipa) [4]: ~1 | thermostability by 1H NMR [6]: superior thermostability; also recorded: improved thermo-stability
